Here are results for 5 compounds from patent US20250066380A1, “NOVEL FURANO-NAPHTHOQUINONE AND NOVEL PYRAZINONE COMPOUNDS FROM AMYCOLATOPSIS AND ACTIVITIES THEREOF” (COUNCIL OF SCIENTIFIC AND INDUSTRIAL RESEARCH (AN INDIAN …, priority 2022, published 2025).

As usually defined, the IC50 is the midpoint of a concentration-inhibition curve. What is called MIC is the smallest concentration in the dilution series that meets the test's criterion for growth inhibition.

Structures are written as SMILES. Values after ≈ are worked out from the molar mass of the structure shown. Like-named read-outs stand apart in the source and are kept apart here.

The subject of experiment [1] is blood-stage Plasmodium falciparum (3D7 strain). As to the kind of experiment: Antimalarial activity, SYBR green staining-based parasitemia determination. The settings on record: P. falciparum 3D7. It counts as cell-based. How it is done: The antimalarial activity was carried out on blood-stage Plasmodium falciparum (3D7 strain) with various concentrations ranging from 10 μM to 0.01 μM by 5 SYBR green staining-based parasitemia determination. Parasite cultures were incubated with the test compounds for 60 h under optimal growth conditions, following which the cells were lysed with 0.01% Triton X and stained with SYBR Green I nucleic acid stain (Thermo Fisher Scientific) to estimate parasite growth and inhibition. Fluorescence readings were obtained with a GloMax plate reader (Promega) after 15 min incubation in the dark and raw fluorescence readings were processed. The % growth inhibition values were estimated from comparisons between test and control samples.

The subject of experiment [2] is MDA-MB-231, A549 and HeLa. The experiment is described as follows: MTT cell viability assay, tested cancer cell lines. It counts as cell-based. As to the method:
(§1) MTT assay was used for the study of cell viability, which measured cellular metabolic activity based on the ability of nicotinamide adenine dinucleotide phosphate (NADPH) dependent oxidoreductase enzymes to reduce the yellow tetrazolium salt 3-[4,5-dimethylthiazole-2-yl]-2,5-diphenyltetrazolium bromide (MTT) to purple formazan crystals. The cell lines used for the study were A549 (lung cancer), HeLa (Cervical cancer) and MDA MB-231 (Breast cancer), which were seeded with a density of 10,000 cells/well into 96-well plates and incubated at 37° C. with 5% CO2 for 20 hours. The compounds with different concentrations were used to treat the cells for 24 hours. The medium was replaced with 100 μL of MTT solution (0.5 mg/mL in DMEM) and then incubated for 4 h at 37° C. in dark. Subsequently, MTT solution was removed and the formazan crystals were solubilized by addition of 100 μl DMSO. The optical density was measured at 570 nm by a Biotek synergy H1 microplate reader.
In general terms: Tetrazolium dyes change colour on reduction, which living cells bring about.

For experiment [3], the system named is Gram-positive bacteria. As to the kind of experiment: MIC, panel of Gram positive bacteria. It is filed as cell-based. How it is done:
(§2) The MICs of the purified compounds were done according to CLSI guidelines using Mueller Hinton broth (Hi media) against panel of six Gram positive bacteria S.aureus, S.epidermidis, B.cereus, B.subtilis, M.luteus and L.monocytogenes, two Gram negative bacteria E.coli and P.aeruginosa, and four MRSA (Methicillin resistant S.aureus) clinical strain. The stock solution of compounds were made at 10 mg/ml in DMSO. The test compounds (highest concentration 128 μg/ml) were serially diluted in 50 μl of Mueller Hinton broth and 50 μl of bacterial suspension were added to reach the final desired cell density of 5×10^5 CFU ml^−1 in each well of 96 well microtiter plate except the media control. The medium, untreated culture, DMSO, ampicillin and kanamycin were used as controls. […] The MICs were defined as the lowest concentration that inhibited visible growth of bacteria.

The subject of experiment [4] is MDA MB-231 (Breast cancer). The experiment is described as follows: MTT cell viability assay. The settings on record: Homo sapiens, MDA-MB-231, 24 hours treatment. It is filed as cell-based. How it is done: as §1
The test system of experiment [5] is HeLa (Cervical cancer). As to the kind of experiment: MTT cell viability assay. It counts as cell-based. The settings on record: Homo sapiens, 24 hours treatment. As to the method: as §1
Experiment [6] concerns A549 (lung cancer). The experiment is described as follows: MTT cell viability assay. It counts as cell-based. The settings on record: Homo sapiens, A549, 24 hours treatment. How it is done:
as §1

Experiment [7] has as its system Mycobacterium smegmatis ATCC 607. As to the kind of experiment: MIC, Middlebrook 7H9 medium. It is filed as cell-based. The settings on record: for MIC: Middlebrook 7H9 medium, 48 hours at 37° C., highest concentration 128 μg/ml.
Experiment [8] has as its system MRSA_3B. The experiment is described as follows: MIC, CLSI broth microdilution, MRSA clinical strain. The settings on record: Mueller Hinton broth, 18 hours at 37° C., highest concentration 128 μg/ml. It counts as cell-based, Methicillin resistant S.aureus. As to the method:
as §2
On the technique in general: Dilution methods test growth across graded concentrations, often in twofold steps.

The subject of experiment [9] is MRSA_10B. The description is as above. It counts as cell-based, Methicillin resistant S.aureus. The settings on record: Mueller Hinton broth, 18 hours at 37° C., highest concentration 128 μg/ml. How it is done: as §2
The test system of experiment [10] is MRSA_6B. Described as above. It counts as cell-based, Methicillin resistant S.aureus. The settings on record: Mueller Hinton broth, 18 hours at 37° C., highest concentration 128 μg/ml. How it is done: as §2
The subject of experiment [11] is MRSA_9B. The description is as above. It counts as cell-based, Methicillin resistant S.aureus. The settings on record: Mueller Hinton broth, 18 hours at 37° C., highest concentration 128 μg/ml. How it is done: as §2
The subject of experiment [12] is resistant clinical bacterial strains. The experiment is described as follows: MIC, resistant clinical bacterial strains. It counts as cell-based, MRSA (Methicillin resistant S.aureus). How it is done:
as §2

Experiment [13] concerns Bacillus subtilis ATCC 6633. The experiment is described as follows: MIC, CLSI broth microdilution. It is filed as cell-based. The settings on record: Mueller Hinton broth, 18 hours at 37° C., highest concentration 128 μg/ml. As to the method: as §2
Experiment [14] deals with Listeria monocytogenes ATCC 19111. The experiment is described as follows: MIC, CLSI broth microdilution. It is filed as cell-based. The settings on record: Mueller Hinton broth, 18 hours at 37° C., highest concentration 128 μg/ml. How it is done:
as §2

Experiment [15] has as its system Micrococcus luteus ATCC 9341. As to the kind of experiment: MIC, CLSI broth microdilution. The settings on record: Mueller Hinton broth, 18 hours at 37° C., highest concentration 128 μg/ml. It counts as cell-based. As to the method:
as §2

The subject of experiment [16] is Staphylococcus aureus ATCC 9144. The experiment is described as follows: MIC, CLSI broth microdilution. The settings on record: Mueller Hinton broth, 18 hours at 37° C., highest concentration 128 μg/ml. It counts as cell-based. As to the method: as §2
For experiment [17], the system named is Bacillus cereus ATCC 11778. The experiment is described as follows: MIC, CLSI broth microdilution. It is filed as cell-based. The settings on record: Mueller Hinton broth, 18 hours at 37° C., highest concentration 128 μg/ml. How it is done: as §2
The test system of experiment [18] is Staphylococcus epidermidis ATCC. The experiment is described as follows: MIC, CLSI broth microdilution. It is filed as cell-based. The settings on record: Mueller Hinton broth, 18 hours at 37° C., highest concentration 128 μg/ml. How it is done: as §2
Experiment [19] has as its system Pseudomonas aeruginosa ATCC 9027. The experiment is described as follows: MIC, CLSI broth microdilution. The settings on record: Mueller Hinton broth, 18 hours at 37° C., highest concentration 128 μg/ml. It counts as cell-based. How it is done: as §2
In experiment [20] the test system is Escherichia coli ATCC 8739. As to the kind of experiment: MIC, CLSI broth microdilution. It is filed as cell-based. The settings on record: ATCC8739, Mueller Hinton broth, 18 hours at 37° C., highest concentration 128 μg/ml. As to the method: as §2
The mark [21] stands for this setting: Mycolicibacterium smegmatis, ATCC607, read-out: MIC.
The mark [22] stands for this setting: Staphylococcus aureus, read-out: MIC.
Setting [23] is: Bacillus subtilis, ATCC6633, read-out: MIC.
[24] abbreviates: Listeria monocytogenes, ATCC19111, read-out: MIC.
Where [25] appears, read: Micrococcus luteus, ATCC9341, read-out: MIC.
[26] abbreviates: Staphylococcus aureus, ATCC9144, read-out: MIC.
Where [27] appears, read: Bacillus cereus, ATCC11778, read-out: MIC.
The mark [28] stands for this setting: Staphylococcus epidermidis, read-out: MIC.

`CC1OC2OC3C(C)(OC4(O)C(=O)c5c(O)cccc5C(=O)C34O)C12O` (stereo not drawn) [Compound C-2]: in [1], the “antimalarial activity” value is recorded as “moderately active”. The “anticancer activity” value in experiment [2] is listed as “moderate activity”. Also, the “antibacterial activity against Gram-positive bacteria” value (“antibacterial activity” below) in experiment [3] was “weakly active”. Moreover, the IC50 in experiment [4] was 19.1 µg/mL; in experiment [5], 36 µg/mL; in experiment [6] it was 44.9 µg/mL.

`CC1OC2OC3C4=C(OC3(C)C12O)C(=O)c1c(O)cccc1C4=O` (stereo not drawn) [Compound C-1]: the “activity against Mycobacterium smegmatis” value in [7] is given as “weakly active”. The MIC in experiment [7] (setting [21]) is 64 µg/mL (≈ 194 µM); in experiment [8] (setting [22]), 4 µg/mL (≈ 12.1 µM); in [9] (setting [22]) it was 4 µg/mL (≈ 12.1 µM); in [10] (setting [22]) it was 4 µg/mL (≈ 12.1 µM); in experiment [11] (setting [22]) it was 4 µg/mL (≈ 12.1 µM); in experiment [13] (setting [23]), 4 µg/mL (≈ 12.1 µM). For the same compound, the MIC in [14] (setting [24]) came out at 2 µg/mL (≈ 6.06 µM); in experiment [15] (setting [25]), 8 µg/mL (≈ 24.2 µM); in [16] (setting [26]), 2 µg/mL (≈ 6.06 µM); in experiment [17] (setting [27]), 8 µg/mL (≈ 24.2 µM); in experiment [18] (setting [28]), 2 µg/mL (≈ 6.06 µM). In [1] (Plasmodium falciparum, read-out: antimalarial activity (bound)), the EC50 was under 1000 nM. In addition, the IC50 in experiment [2] (read-out: IC50 value range over the tested cancer cell lines) is 1.79 to 8.82 µg/mL; in experiment [4] it was 1.79 µg/mL; in experiment [5], 3.53 µg/mL; in experiment [6] it was 2.14 µg/mL. Further, in experiment [3], the “antibacterial activity” value was “good antibacterial activity”. The “activity against the resistant clinical bacterial strains” value in [12] is reported as “active”.

As to `CC(C)Cc1nc(C(C)C(=O)O)c(C(C)C)n(O)c1=O` (stereo not drawn) [Compound C-4], the “antimalarial activity” value in experiment [1] was “moderately active”. Also, the “anticancer activity” value in [2] is “moderate activity”. For the same compound, the MIC in experiment [8] (setting [22]), in [9] (setting [22]), in experiment [10] (setting [22]), in experiment [11] (setting [22]), in experiment [13] (setting [23]) and in experiment [14] (setting [24]) was 128 µg/mL (≈ 453 µM) each time. Besides, the MIC in experiment [15] (setting [25]) was determined as 64 µg/mL (≈ 227 µM); in experiment [16] (setting [26]) it was 128 µg/mL (≈ 453 µM); in experiment [17] (setting [27]), 128 µg/mL (≈ 453 µM); in [18] (setting [28]), 64 µg/mL (≈ 227 µM). Besides, the “antibacterial activity” value in [3] was “weakly active”. For the same compound, the IC50 in [4] amounted to 14.1 µg/mL; in [5] it was 15.4 µg/mL; in [6] it was 40.2 µg/mL.

As for `NC[C@H]1O[C@H](O[C@H]2[C@H](O)[C@@H](O[C@H]3O[C@H](CO)[C@@H](O)[C@H](N)[C@H]3O)[C@H](N)C[C@@H]2N)[C@H](O)[C@@H](O)[C@@H]1O` [Kanamycin, kanamycin, reference compound], the MIC in experiment [7] (setting [21]) was 0.25 µg/mL (≈ 0.516 µM); in experiment [11] (setting [22]) it was 128 µg/mL (≈ 264 µM); in experiment [13] (setting [23]), 0.5 µg/mL (≈ 1.03 µM); in [19] (Pseudomonas aeruginosa, ATCC9027, read-out: MIC) it was 8 µg/mL (≈ 16.5 µM); in experiment [14] (setting [24]), 1 µg/mL (≈ 2.06 µM); in experiment [15] (setting [25]), 8 µg/mL (≈ 16.5 µM). Further, the MIC stood at 8 µg/mL (≈ 16.5 µM) in experiment [16] (setting [26]), 8 µg/mL (≈ 16.5 µM) in experiment [20], 2 µg/mL (≈ 4.13 µM) in experiment [17] (setting [27]) and 1 µg/mL (≈ 2.06 µM) in [18] (setting [28]).

Turning to `CC1(C)S[C@@H]2[C@H](NC(=O)[C@H](N)c3ccccc3)C(=O)N2[C@H]1C(=O)O` [Ampicilli, ampicillin, reference compound], the MIC in [7] was 64 µg/mL (≈ 183 µM); in [8] it was 8 µg/mL (≈ 22.9 µM); in [9], 4 µg/mL (≈ 11.4 µM); in experiment [10] it was 8 µg/mL (≈ 22.9 µM); in experiment [11], 16 µg/mL (≈ 45.8 µM); in experiment [13] it was 0.03 µg/mL (≈ 0.0859 µM). Moreover, the MIC in experiment [19] worked out at 2 µg/mL (≈ 5.72 µM); in [14], 0.03 µg/mL (≈ 0.0859 µM); in [15], 0.03 µg/mL (≈ 0.0859 µM); in experiment [16], 0.03 µg/mL (≈ 0.0859 µM); in [17], 16 µg/mL (≈ 45.8 µM); in [18] it was 1 µg/mL (≈ 2.86 µM).
